In publication PMC6833013 (Molecules, 2019):

What was measured:
[1] = system: Bacillus subtilis MB964; type: cell-based
[2] = system: HepG2; test: cells; type: cell-based; conditions: Homo sapiens, HepG2, 24 h, read-out: IC50 HepG2
[3] = system: MCF-7; test: cells; type: cell-based; conditions: Homo sapiens, MCF7, 24 h, read-out: IC50 MCF-7
[4] = system: RCC4-VA; test: cells; type: cell-based; conditions: Homo sapiens, 24 h, read-out: IC50 RCC4-VA
[5] = system: RCC4-VHL; test: cells; type: cell-based; conditions: Homo sapiens, 24 h, read-out: IC50 RCC4-VHL
[6] = system: Fa2N4; test: cells; type: cell-based; conditions: Homo sapiens, Fa2N-4, 24 h, read-out: IC50 Fa2N4
[7] = system: A549; test: cells; type: cell-based; conditions: Homo sapiens, A549, 24 h, read-out: IC50 A549
[8] = system: HT29; test: cells; type: cell-based; conditions: Homo sapiens, HT-29, 24 h, read-out: IC50 HT29
[9] = system: human cell lines

Compound | B. subtilis MB964 inhibition halo [1] | IC50 [2] | IC50 [3] | IC50 [4] | IC50 [5] | IC50 [6] | IC50 [7] | IC50 [8] | cytotoxic activity in all the cell lines tested [9]
CC(=O)OC1CC2OC3C=C(C)CCC3(C)C1(C)C2(O)CO [Compound 3, (4R,12S)-12-Hydroxy-12-(hydroxymethyl)trichothec-9-en-4-yl acetate] | no halo | > 20 µg/mL | > 20 µg/mL | > 20 µg/mL | > 20 µg/mL | > 20 µg/mL | > 20 µg/mL | > 20 µg/mL | lost all their activity
CCC(=O)OC1CC2OC3C=C(C)CCC3(C)C1(C)C2(O)CO [Compound 16, (4R,12S)-12-Hydroxy-12-hydroxymethyltrichothec-9-en-4-yl propionate] | no halo | > 20 µg/mL | > 20 µg/mL | > 20 µg/mL | > 20 µg/mL | > 20 µg/mL | > 20 µg/mL | > 20 µg/mL | lost all their activity
